Data on 35 molecules can be found in patent publication US20250230226A1, “PLXDC1/PLXDC2 ACTIVATORS AND THEIR USE IN THE TREATMENT OF BLOOD VESSEL DISORDERS” (THE REGENTS OF THE UNIVERSITY OF CALIFORNIA, priority 2019, published 2025).

The test system of this experiment is LL/2 lung cancer tumor endothelial cells. Nature of the experiment: Lung LL2 ex vivo model of tumor angiogenesis. The experiment is classed as cell-based, mouse. As to conditions: for 48 hrs (morphology observations): LL/2 tumor endothelial cells; for Cell death: drug treatment for two days, ratio of red area to total endothelial cell area. An outline of the steps: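 LL2 mouse tumor fragments (~0.075 mm³) embedded in Matrigel and cultured in endothelial growth medium at 37 °C until endothelial outgrowth (~4 days) before treatment. Cell death assessed e.g. 48 h after drug by fluorescein diacetate (live)/propidium iodide (dead) staining and red/green fluorescence imaging.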

The mark [1] stands for this setting: Mus musculus, Endothelial cell, 48 h, read-out: Cell death.

Consider `CCCCOc1ccc(S(=O)(=O)c2cnc3ccc([S+](C)[O-])cc3c2N2CCC(N3CCOCC3)CC2)cc1` (stereo not shown) [Compound 235], for which, where the note is “40 μm”, the “48 hrs (morphology observations)” value was 0 and the Cell death was 10%.

Regarding `CCOC(=O)c1ccc2ncc(S(=O)(=O)c3ccc(OC)cc3)c(N3CCC(N4CCCCCC4)CC3)c2c1` [Compound 173], the Cell death (40 μm) stood at 50%.

Take `CCCCCCCOc1ccc(S(=O)(=O)c2cnc3ccc(SC)cc3c2N2CCC(N3CCC(O)(c4ccccc4)CC3)CC2)cc1` [Compound 262]: where the note is “10 μm”, the “48 hrs (morphology observations)” value is recorded as 0 and the Cell death came to 20%.

Turning to `CCc1ccc(S(=O)(=O)c2cnc3ccc(OC(F)(F)F)cc3c2NCCCCO)cc1` [Compound 111], where the note is “20 μm”, the “48 hrs (morphology observations)” value stood at 0 and the Cell death was 30%.

Consider `O=S(=O)(c1ccc(OC(F)(F)F)cc1)c1cnc2ccc(OC(F)(F)F)cc2c1N1CCC(N2CCCCC2)CC1` [Compound 120], for which the “48 hrs (morphology observations)” value (20 μm) is listed as 0. Further, under setting [1], the cytotoxicity at 20 µM came out at 5%.

In the case of `CCCCCCCCCCCCCCCCOc1ccc(S(=O)(=O)c2cnc3ccc([S+](C)[O-])cc3c2N2CCC(N3CCC(N4CCCC(O)C4)CC3)CC2)cc1` (stereo not shown) [Compound 378], for the setting “20 μm”, the “48 hrs (morphology observations)” value is on record as “*** (more than 50% but less than 100% of endothelial cells vesicularize in cell shape)” and the Cell death amounted to 30%.

`CCCCOc1ccc(S(=O)(=O)c2cnc3ccc(C(=O)OCC)cc3c2N2CCN(c3ccc(F)cc3)CC2)cc1` [Compound 213]: the “48 hrs (morphology observations)” value (40 μm) turned out to be 0. In addition, under setting [1], the cytotoxicity at 40 µM came out at 30%.

As to `CCOC(=O)c1ccc2ncc(S(=O)(=O)c3ccc(OC)cc3)c(N3CCCN(CCN4CCCCC4)CC3)c2c1` [Compound 179], where the note is “10 μm”, the “48 hrs (morphology observations)” value is given as “*** (more than 50% but less than 100% of endothelial cells vesicularize in cell shape)” and the Cell death is 60%.

As for `CCCCOc1ccc(S(=O)(=O)c2cnc3ccc(SC)cc3c2N2CCCN(C3COC3)CC2)cc1` [Compound 355], under “40 μm”, the “48 hrs (morphology observations)” value was determined as 0. Moreover, under setting [1], the cytotoxicity at 40 µM is 0%.

Consider `CCCCOc1ccc(S(=O)(=O)c2cnc3ccc(C(=O)OCC)cc3c2N2CC[S+]([O-])CC2)cc1` [Compound 195], for which, where the note is “40 μm”, the “48 hrs (morphology observations)” value is reported as 0.

For the molecule `CCCCCCCCCCCCOc1ccc(S(=O)(=O)c2cnc3ccc([S+](C)[O-])cc3c2N2CCC(N3CCC(N4CCC(O)CC4)CC3)CC2)cc1` (stereo not shown) [Compound 374], the Cell death (20 μm) was 20%.

Regarding `CCc1ccc(S(=O)(=O)c2cnc3ccc(OC(F)(F)F)cc3c2N2CCC(N(CC)CC)CC2)cc1` [Compound 103], for the setting “20 μm”, the “48 hrs (morphology observations)” value is 0 and the Cell death is 10%.

Take `CCCCOc1ccc(S(=O)(=O)c2cnc3ccc(SC)cc3c2N2CCC(N3CCC(O)(c4ccccc4)CC3)CC2)cc1` [Compound 232]: under “40 μm”, the “48 hrs (morphology observations)” value was 0 and the Cell death is listed as 10%.

For the molecule `CCCCOc1ccc(S(=O)(=O)c2cnc3ccc(C(=O)N(CC)CC)cc3c2N2CCCN(C)CC2)cc1` [Compound 199], where the note is “40 μm”, the “48 hrs (morphology observations)” value came to 0 and the Cell death is given as 30%.

Consider `COc1ccc(N2CCN(c3c(S(=O)(=O)c4ccc(OC)cc4)cnc4cc(OC)c(OC)cc34)CC2=O)cc1` [Compound 318], for which, where the note is “40 μm”, the “48 hrs (morphology observations)” value came out at 0 and the Cell death stood at 30%.

As to `CCN(CC)CCN(CC)c1c(S(=O)(=O)c2ccc(OC)cc2)cnc2cc(OC)c(OC)cc12` [Compound 296], for the setting “40 μm”, the “48 hrs (morphology observations)” value is on record as 0 and the Cell death was 20%.

For the molecule `COc1ccc(S(=O)(=O)c2cnc3ccc([N+](=O)[O-])cc3c2N2CCC(N3CCCCC3)CC2)cc1` [Compound 114], for the setting “20 μm”, the “48 hrs (morphology observations)” value is given as 0 and the Cell death was found to be 5%.

Regarding `CCCCCCCCCCCCCCOc1ccc(S(=O)(=O)c2cnc3ccc([S+](C)[O-])cc3c2N2CCC(N3CCC(N4CCC(O)CC4)CC3)CC2)cc1F` (stereo not shown) [Compound 373], for the setting “20 μm”, the “48 hrs (morphology observations)” value is “* (50% or less of cells vesicularize in cell shape)” and the Cell death came to 20%.

For the molecule `CCN(CC)CCOc1ccc(S(=O)(=O)c2cnc3ccc(SC)cc3c2N2CCCN(C)CC2)cc1` [Compound 242], where the note is “40 μm”, the “48 hrs (morphology observations)” value was 0 and the Cell death is given as 30%.

`CCCCCCCCCCOc1ccc(S(=O)(=O)c2cnc3ccc([S+](C)[O-])cc3c2N2CCC(N3CCC(N4CCN(C)CC4)CC3)CC2)cc1` (stereo not shown) [Compound 285]: under “10 μm”, the “48 hrs (morphology observations)” value is listed as “*** (more than 50% but less than 100% of endothelial cells vesicularize in cell shape)” and the Cell death was found to be 60%.

With `CCCCOc1ccc(S(=O)(=O)c2cnc3ccc(SC)cc3c2N2CCC(N3CCCN(C)CC3)CC2)cc1` [Compound 234], under “40 μm”, the “48 hrs (morphology observations)” value is “*** (more than 50% but less than 100% of endothelial cells vesicularize in cell shape)” and the Cell death stood at 100%.

As for `CCCCOc1ccc(S(=O)(=O)c2cnc3ccc(C(=O)OCC)cc3c2N2CCC(N3CC[S+]([O-])CC3)CC2)cc1` [Compound 244], for the setting “40 μm”, the “48 hrs (morphology observations)” value is 0. Further, the cytotoxicity at 40 µM under setting [1] turned out to be 20%.

With `CCOC(=O)c1ccc2ncc(S(=O)(=O)c3ccc(OC)cc3)c(-n3ccnn3)c2c1` [Compound 184], for the setting “10 μm”, the “48 hrs (morphology observations)” value stood at 0 and the Cell death amounted to 5%.

Turning to `COc1ccc(S(=O)(=O)c2cnc3cc(OC)c(OC)cc3c2N2CCCN(C3CCS(=O)(=O)CC3)CC2)cc1` [Compound 330], under “40 μm”, the “48 hrs (morphology observations)” value is recorded as “*** (more than 50% but less than 100% of endothelial cells vesicularize in cell shape)” and the Cell death turned out to be 50%.

Consider `CCCCCCCCCCCCOc1ccc(S(=O)(=O)c2cnc3ccc([S+](C)[O-])cc3c2N2CCC(N3CCC(N4CCN(CCO)CC4)CC3)CC2)cc1` (stereo not shown) [Compound 340], for which, where the note is “20 μm”, the “48 hrs (morphology observations)” value is recorded as “*** (more than 50% but less than 100% of endothelial cells vesicularize in cell shape)” and the Cell death is listed as 60%.

On to `CCCCOc1ccc(S(=O)(=O)c2cnc3ccc([S+](C)[O-])cc3c2N2CCC(N3CCCCC3)CC2)cc1` (stereo not shown) [Compound 167], for which, under “20 μm”, the “48 hrs (morphology observations)” value came out at 0 and the Cell death is 40%.

`CCCCCCCOc1ccc(S(=O)(=O)c2cnc3ccc(SC)cc3c2N2CCN(CCN3CCCC3)CC2)cc1` [Compound 272]: for the setting “20 μm”, the “48 hrs (morphology observations)” value is “* (50% or less of cells vesicularize in cell shape)” and the Cell death was determined as 20%.

With `CCCCOc1ccc(S(=O)(=O)c2cnc3ccc([S+](C)[O-])cc3c2N2CCC(N3CCN(CCO)CC3)CC2)cc1` (stereo not shown) [Compound 236], where the note is “40 μm”, the “48 hrs (morphology observations)” value came out at 0 and the Cell death came to 5%.

Regarding `COc1ccc(S(=O)(=O)c2cnc3cc(OC)c(OC)cc3c2N2CCCN(CCO)CC2)cc1` [Compound 323], under “40 μm”, the “48 hrs (morphology observations)” value was 0 and the Cell death was determined as 30%.

Consider `CCCCCCCCCCOc1ccc(S(=O)(=O)c2cnc3ccc([S+](C)[O-])cc3c2N2CCC(N3CCCN(C)CC3)CC2)cc1` (stereo not shown) [Compound 267], for which, under “10 μm”, the “48 hrs (morphology observations)” value turned out to be 0 and the Cell death is reported as 5%.

For `CCCCCCCCCCCCCCCCOc1ccc(S(=O)(=O)c2cnc3ccc([S+](C)[O-])cc3c2N2CCC(N3CCC(N4CCCCC4)CC3)CC2)cc1` (stereo not shown) [Compound 377], where the note is “20 μm”, the “48 hrs (morphology observations)” value came out at 0 and the Cell death was found to be 10%.

On to `CCCCOc1ccc(S(=O)(=O)c2cnc3ccc(SC)cc3c2N2CCC(N3CCCC3CO)CC2)cc1` (stereo not shown) [Compound 350], for which the “48 hrs (morphology observations)” value (40 μm) is on record as 0. For the same molecule, the cytotoxicity at 40 µM under setting [1] turned out to be 20%.

For `CCCCOc1ccc(S(=O)(=O)c2cnc3ccc(C(=O)OCC)cc3c2N2CCC(N3CCCCCC3)CC2)cc1` [Compound 176], for the setting “40 μm”, the “48 hrs (morphology observations)” value is recorded as “*** (more than 50% but less than 100% of endothelial cells vesicularize in cell shape)” and the Cell death stood at 100%.

Consider `CCCCOc1ccc(S(=O)(=O)c2cnc3ccc(C(=O)OCC)cc3c2N2CCCN(CCN3CCCCC3)CC2)cc1` [Compound 181], for which, under “40 μm”, the “48 hrs (morphology observations)” value was “**** (100% of endothelial cells vesicularize in cell shape and look flattened in morphology (indicating disintegration of the cell body))”; the Cell death is given as 100%.

Turning to `CCCCCCCCCCCCCCOc1ccc(S(=O)(=O)c2cnc3ccc([S+](C)[O-])cc3c2N2CCC(N3CCC(N4CCC(O)CC4)CC3)CC2)cc1` (stereo not shown) [Compound 375], for the setting “20 μm”, the “48 hrs (morphology observations)” value is recorded as “* (50% or less of cells vesicularize in cell shape)” and the Cell death is on record as 50%.
